# Legend:
# Type in all cases: in vivo
# [1] = test system: blackgrass (Alopecurus myosuroides); assay: Test A greenhouse herbicide test, postemergence
# Summary of the method: (§1)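 Scores are visual injury ratings from 0 (no effect) to 100 (complete control) versus untreated plants, taken roughly 10 d after treatment in the greenhouse. Treatment was postemergence, on one- to two-leaf plants 2–10 cm high growing in a loam soil/sand mix.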
# [2] = test system: galium (catchweed bedstraw, Galium aparine); assay: Test A greenhouse herbicide test, postemergence
# Summary of the method: as §1
# [3] = test system: barnyardgrass (Echinochloa crus-galli); assay: Test B flooded paddy test; details: 250 g ai/ha, Flood; visual rating on scale of 0 to 100 where 0 is no effect and 100 is complete control; 13 to 15 d after treatment
# Summary of the method: (§2)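 Ratings use a 0-100 visual scale, where 100 is complete control, and compare treated plants with controls after 13 to 15 d of greenhouse growth. Compound went straight into paddy water kept 3 cm over the soil surface, applied to seedlings at the 2-leaf stage.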
# [4] = test system: ducksalad (Heteranthera limosa); assay: Test B flooded paddy test; details: 250 g ai/ha, Flood; visual rating on scale of 0 to 100 where 0 is no effect and 100 is complete control; 13 to 15 d after treatment
# Summary of the method: as §2
# rice (Oryza sativa) = assay: Test B flooded paddy test; details: 250 g ai/ha, Flood; visual rating on scale of 0 to 100 where 0 is no effect and 100 is complete control; 13 to 15 d after treatment
# Summary of the method: as §2
# [5] = test system: sedge, umbrella (small-flower umbrella sedge, Cyperus difformis); assay: Test B flooded paddy test; details: 250 g ai/ha, Flood; visual rating on scale of 0 to 100 where 0 is no effect and 100 is complete control; 13 to 15 d after treatment
# Summary of the method: as §2
# [6] = test system: morningglory (Ipomoea coccinea); assay: Test C greenhouse herbicide test, pre- and postemergence
# Summary of the method: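 Percent-control ratings (0 none, 100 complete) came from visual comparison with controls held alongside in the greenhouse for 13–15 d. Treatments covered soil application at sowing and foliar application to young plants 2–18 cm tall.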
# [7] = test system: chickweed (common chickweed, Stellaria media); assay: Test C greenhouse herbicide test, postemergence
# Summary of the method: (§3)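 Seedlings are raised in pots of peat moss–vermiculite medium with starter nutrients, then receive postemergence test chemical at the 1- to 4-leaf stage. They are kept in the greenhouse 13 to 15 d and scored visually versus controls, 0 meaning no effect and 100 complete control.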
# kochia (Kochia scoparia) = assay: Test C greenhouse herbicide test, postemergence
# Summary of the method: as §3
# [8] = test system: oat, wild (wild oat, Avena fatua); assay: Test C greenhouse herbicide test, postemergence
# Summary of the method: as §3
# [9] = 125 g ai/ha, 0 to 100 scale where 0 is no effect and 100 is complete control
# [10] = 500 g ai/ha, visual rating after approx. 10 d, 0 to 100 scale (0 no effect, 100 complete control)
# [11] = Postemergence, 31 g ai/ha, scale 0 to 100 (0 no effect, 100 complete control)
# [12] = Postemergence, 62 g ai/ha, 0 to 100 scale (0 no effect, 100 complete control)
# [13] = Postemergence, 250 g ai/ha, scale 0 to 100, 0 no effect, 100 complete control, 13 to 15 d
# [14] = postemergence, 125 g ai/ha, scale 0 to 100, 0 no effect, 100 complete control
# [15] = 125 g ai/ha, 0 to 100 scale, 0 no effect, 100 complete control
# [16] = Postemergence, 250 g ai/ha, scale 0 to 100, 0 is no effect, 100 is complete control
Structure (SMILES),"Plant response rating, Blackgrass [1, 10]","Plant response rating, Galium [2, 10]","Plant response rating, Barnyardgrass [3]","Plant response rating, Ducksalad [4]","Plant response rating, Rice (rice (Oryza sativa))","Plant response rating, Sedge, Umbrella [5]","Plant response rating, Morningglory [6, 11]","Morningglory plant response rating [6, 12]","Morningglory plant response rating [6, 14]","Plant response rating, Chickweed [7, 11]","Chickweed plant response rating [7, 12]","Chickweed plant response rating [7, 14]","Plant response rating, Kochia (kochia (Kochia scoparia); [11])",Kochia plant response rating (kochia (Kochia scoparia); [12]),Kochia plant response rating (kochia (Kochia scoparia); [14]),"Plant response rating, Oat, Wild [8, 11]","Oat, Wild plant response rating [8, 12]","Oat, Wild plant response rating [8, 14]",also measured
CC(=O)Oc1c(C)nn(C)c(=O)c1-c1c(C)sc2ccc(C(F)(F)F)cc12 [Compound 132],50,100,0,0,0,0,65,80,95,90,90,95,85,90,95,40,60,70,"Plant response rating, Blackgrass [1, 9]: 30; Plant response rating, Galium [2, 9]: 80; Plant response rating, Morningglory [6, 13]: 98; Plant response rating, Morningglory ([6]; Preemergence, 31 g ai/ha, scale 0 to 100, 0 is no effect, 100 is complete control): 40; Plant response rating, Morningglory ([6]; Preemergence, 62 g ai/ha, scale 0 to 100, 0 is no effect, 100 is complete control): 65; Plant response rating, Morningglory ([6]; Preemergence, 125 g ai/ha, scale 0 to 100, 0 is no effect, 100 is complete control): 95; Morningglory plant response rating ([6]; Preemergence, 250 g ai/ha, scale 0 to 100, 0 no effect, 100 complete control): 90; Plant response rating, Chickweed [7, 13]: 95; Plant response rating, Kochia (kochia (Kochia scoparia); [13]): 95; Plant response rating, Oat, Wild [8, 13]: 90"
Cc1nn(C)c(=O)c(-c2c([N+](=O)[O-])ccc3ccccc23)c1O [Compound 165],50,100,0,0,0,0,75,70,85,70,90,95,45,40,85,40,45,65,"Plant response rating, Blackgrass [1, 15]: 20; Plant response rating, Galium [2, 15]: 100; Plant response rating, Morningglory [6, 16]: 95; Plant response rating, Chickweed [7, 16]: 98; Plant response rating, Kochia (kochia (Kochia scoparia); [16]): 90; Plant response rating, Oat, Wild [8, 16]: 70"
